Data from patent publication US10363261B2, “Enolase inhibitors and methods of treatment therewith” (Board of Regents, The University of Texas System, priority 2015, dated 2019).
pIC50: −log10 of the molar value. “Also recorded” adds a separate entry of the source. Like-named read-outs stand apart in the source and are kept apart here.

Legend:
[1] = tested on: ENO1 null glioma cells (D423-MG); test: Growth inhibition by live imaging (Incucyte) / crystal violet; format: cell-based, human; conditions: for pIC50: Homo sapiens, D-423MG, 72 h, confluence over 3 days, read-out: approximate IC50 for growth inhibition of ENO1 null glioma cells
Method: (§1) Cell proliferation of glioma cell lines was assayed either through crystal violet staining or by live-cell confluence measurements with the IncuCyte (Essen BioScience). Growth curves using the IncuCyte were generated by confluence imaging every 4 hours with duplicate replicates with an initial seeding of 1500 cells/well in 96-well plates. At the indicated time point, cells were fixed with 10% formalin and stained with crystal violet. Dye extraction was performed using 10% acetic acid solution, and absorbance was read at 595 nm. Apoptotic cells were counted by staining with YO-PRO®-1 Iodide (491/509, Life Technologies, Y3603). Apoptotic cells become permeable to YO-PRO®-1 while live cells are not stained. Alternatively, Propidium Iodide was employed (Life Technologies) instead of YO-PRO. Total cell number was quantified by Hoechst 33342 (Cat# H3570 Invitrogen). Cells were seeded as 2×10^3 cells/well in 96-well plates and treated in the presence or absence of doxycycline. On the day of apoptosis survey, old media was removed and each well was filled to 100 μl with fresh media. Hoechst and YO-PRO®-1 were mixed in 1:100 PBS and 10 μl of the mixture was added in each well gently without touching the cells for a final dilution of 1:1000 from stock. Plates were then incubated at 37° C. for 2 hours. Image capture and quantification was done by High Content Screening System—Operetta (Perkin Elmer). ATP content was measured with the luciferase/luciferin CellTiter-Glo® assay. Briefly, 100 μl of CellTiter-Glo® assay media was added to 96-well plates containing 100 μl of media and cells. Lysis was achieved by the […] in the buffer and vigorous pipetting, and luminescence was determined using an Omega Luminescence Plate Reader (BMG Labtech). Results were expressed relative to vehicle treated control.
(§2) The inhibitor effects were followed live-cell confluence measurements with the IncuCyte (Essen BioScience) as we described previously (Muller et al., 2012). Growth curves using the IncuCyte were generated by confluence imaging every 2 hours with quadruplicate replicates with and initial seeding of 10^3 cells/well in 96-well plates.
(§3) At the indicated time point (usually 2 weeks), cells were fixed with 10% formalin and stained with 0.1% crystal violet solution for 1 h as described previously (Muller et al., 2012). Dye extraction was performed using 10% acetic acid solution, and absorbance was read at 595 nm.

Maximum tolerated dose = test: Maximum tolerated dose; set-up: species or system NUDE immunocompromised mice; conditions: mouse, in vivo
enolase (ENO1 and ENO2) = test: Enolase inhibitory activity in vitro, isoform not distinguished (ENO1 and ENO2); format: biochemical, human
Method: (§4) Human ENO1 and ENO2 were overexpressed in the human D423 cell line and used for enzymatic assays. Inhibitors (PhAH, SF2312 and Deoxy-SF2312, Hex, Hepta, Pom-Hex, and Fosmidomycin) were incubated with the enzyme prior to addition of 5 mM 2-PG substrate. Enzymatic activity was measured by monitoring fluorescence of NADH at 340 nm Exitation/460 nm emission using an Lactate dehydrogenase/Pyruvate kinase linked assay which links the formation of PEP to the oxidation of NADH to NAD+, as we have described in published work (Muller et al., 2012). Enzymatic activity was normalized to that in the absence of the inhibitor (set to 1) and plotted as function of inhibitor concentration.
(§5) Enolase activity was measured using two different methods, either by a fluorometric NADH-linked assay or a direct spectrophotometric assay via formation of PEP. In the fluorescent assay, enolase activity was measured via NADH oxidation in a pyruvate kinase-lactate dehydrogenase coupled assay as previously described (Muller, et al., 2012). The assay is conducted in 10 mM KCl, 5 mM MgSO4, 100 mM triethanolamine at pH 7.4, with 400 μM NADH and 2 mM ADP. 2-Phosphoglycerate (2-PGA), pyruvate kinase (PK) and lactate dehydrogenase (LDH) are provided in excess, with conversion of 2-PGA to PEP by enolase being rate limiting. PEP (with ADP) is substrate of PK; pyruvate formed by this reaction is linked to NADH oxidation by LDH. Enolase activity is determined by measuring oxidation of NADH fluorescently by excitation at 340 nm and emission at 460 nm. The substrate concentration, if not otherwise indicated, was 5 mM 2-PGA. Fluorescence was measured using Omega Fluorescence Plate Reader (BMG Labtech). Alternatively, Enolase activity was measured directly by the appearance of PEP from 2-PGA via absorption at 240 nm (Marangos, et al., 1978). The assay medium was the same, except that all the auxiliary reagents (PK/LDH, NADH, ADP) are omitted. Both assays were conducted in a 96-well plated format with the direct assay performed in UV-transmissible plates.

ENO2 = ENO2 (Homo sapiens, UniProt P09104); test: Enolase enzymatic activity and Michaelis-Menten kinetic analysis, ENO2; conditions: for inhibition kinetics with respect to substrate 2-PGA: SF2312: at IC50
Method: Human ENO1 and ENO2 were overexpressed in the human D423 cell line and used for enzymatic assays. […] Enzymatic activity was measured by monitoring fluorescence of NADH at 340 nm Exitation/460 nm emission using an Lactate dehydrogenase/Pyruvate kinase linked assay which links the formation of PEP to the oxidation of NADH to NAD+, as we have described in published work (Muller et al., 2012). Enzymatic activity was normalized to that in the absence of the inhibitor (set to 1) and plotted as function of inhibitor concentration.
The Michaelis-Menten Kinetic analysis was performed using standard methods in the field such as those taught by Voet and Voet, 2011. The enzymatic activity of Enolase 1 or 2 v was determine over a concentration range of 10 mM to 0.5 mM 2-PG [S], in the presence of increasing concentrations of inhibitor [I].
Native lysates of mouse tissues and human cell lines were prepared using 20 mM Tris HCl, 1 mM EDTA, and 1 mM β-mercaptoethanol at pH 7.4 and homogenized using a Polytron homogenizer three times for a period of 10 s followed by sonication, after which the lysates were cleared by centrifugation at 20,000 g for 10 minutes. Enolase activity was measured using two different methods, either by a fluorometric NADH-linked assay or a direct spectrophotometric assay via formation of PEP. In the fluorescent assay, enolase activity was measured via NADH oxidation in a pyruvate kinase-lactate dehydrogenase coupled assay as previously described (Muller, et al., 2012). The assay is conducted in 10 mM KCl, 5 mM MgSO4, 100 mM triethanolamine at pH 7.4, with 400 μM NADH and 2 mM ADP. 2-Phosphoglycerate (2-PGA), pyruvate kinase (PK) and lactate dehydrogenase (LDH) are provided in excess, with conversion of 2-PGA to PEP by enolase being rate limiting. PEP (with ADP) is substrate of PK; pyruvate formed by this reaction is linked to NADH oxidation by LDH. Enolase activity is determined by measuring oxidation of NADH fluorescently by excitation at 340 nm and emission at 460 nm. The substrate concentration, if not otherwise indicated, was 5 mM 2-PGA. Fluorescence was measured using Omega Fluorescence Plate Reader (BMG Labtech). Alternatively, Enolase activity was measured directly by the appearance of PEP from 2-PGA via absorption at 240 nm (Marangos, et al., 1978). The assay medium was the same, except that all the auxiliary reagents (PK/LDH, NADH, ADP) are omitted. Both assays were conducted in a 96-well plated format with the direct assay performed in UV-transmissible plates.

human ENO1 = human ENO1 (Homo sapiens, UniProt P06733); test: Enolase enzymatic activity, NADH-linked pyruvate kinase/lactate dehydrogenase fluorescence assay, ENO1
Method: as §4, §5

normal human astrocytes = test: Sensitivity under conventional growth conditions, normal cells; format: cell-based
Method: as §2, §3

[2] = tested on: cell lines heterozygously deleted for ENO1; test: Sensitivity under conventional growth conditions, ENO1 heterozygous lines; format: cell-based, human
Method: as §2, §3

[3] = tested on: ENO1 deleted glioma cells in neurospheres; test: Cell viability in 3 dimensional neurosphere conditions (tetramethylrhodamine); format: cell-based, human
Method: The cellular viability studies of 3-dimensional tumospheres was performed by using the vital dye, tetramethylrhomdamine ethyl ester (TMRE). […] For reference, a brightfield picture was also taken.
To more accurately model tumors, glioma cells were grown in 3 dimensional neurosphere conditions. The surface to volume ratio of the neurosphere was considerably smaller than in convention cell culture conditions and as such, compounds with poor cell penetration such as phosphonates have considerably lower efficacy than in conventional cell culture. […] However, under the same conditions, the cell permeable pro-drug, Pom-Hex, was highly toxic to ENO1 deleted glioma cells (FIG. 10B). Cell viability in spheres was monitored using 100 nM of tetramethylrhodamine, which is actively taken up by live but not dead cells.

[4] = tested on: VHL deleted kidney cancer cell lines RCC4 and 786-O; test: Live growth imaging (Incucyte) of VHL deleted vs VHL rescued kidney cancer cells; format: cell-based, human
Method: as §2
VHL is a common event in renal clear cell carcinoma. Deletion of VHL activates the HIF pathway, suppressing respiration and rendering cancer cells highly dependent on glycolysis. As such, efforts have been made to target glycolysis to achieve selective toxicity to VHL deficient kidney cancer. As such, the enolase inhibitor Pom-Hex was tested in VHL deteted kidney cancer cell lines. In two independent VHL deleted kidney cancer cell lines, RCC4 (bottom) and 786-O (top panel), the enolase inhibitor, Pom-Hex, was 4-8 times more toxic to the VHL deleted (upper), compared to isogenic rescued controls, expressing VHL from an ectopic locus (lower panels, italics). As in FIG. 12, growth in response to increasing doses of Pom-Hex was measured by live growth imaging using the Incucyte.

[5] = tested on: D423-MG glioma cells (1p36 deletion spanning ENO1); test: Intracranial D423-MG glioma tumors tracked by T2 MRI; format: in vivo, Nude mice; conditions: 10 mg/kg intravenous for 11 days
Method: Nude mice were injected with D423-MG glioma cells which carry the 1p36 deletion spanning ENO1. Tumors formed around 30 days post injection and growth was tracked non-invasively by T2 MRI. In the absence of treatment, tumors grew continuously, ultimately killing the animal. The tumor area (right side of the brain) is distinguished from the normal mouse brain by high contrast. MRI measurements were performed in a 4.7 T Biospec USR47/40 (Bruker Biospin MRI, Billerica, Mass.) at the M. D. Anderson small animal imaging facility (SAIF). Briefly, animals were maintained under deep anesthesia with isoflurane with body temperature maintained by a heating blanket. Anesthetized mice were restrained with the head held in a stereotactic holder. Breathing was monitored and synchronized with the instrument. Routine tumor detection was done by T2-weighed imaging. First, a low resolution axial scan is taken to center the field properly, after which a series of high resolution axial and coronal scans are recorded.
Nude mice were injected with D423-MG glioma cells which carry the 1p36 deletion spanning ENO1. Tumors formed around 30 days post injection and growth was tracked non-invasively by T2 MRI. In the absence of treatment, tumors grew continuously, ultimately killing the animal. The tumor area (right side of the brain) was distinguished from the normal mouse brain by high contrast. […]

[6] = tested on: ENO1 deleted Glioblastoma cell line, Gli56; test: Intracranial Gli56 glioblastoma tumors tracked by T2 MRI; format: in vivo, NUDE immunocompromised mice; conditions: Pom-SF2312 at 4 MPK
Text: Animals (NUDE immunocompromised mice) injected intracranially with the ENO1 deleted Glioblastoma cell line, Gli56. After 30 days, tumors became readily visible by MRI (T2, the white hyperintense regions are tumor on the background grey of the normal brain). In the absence of treatment, Gli56 tumors grow continuously (Mouse #1, and Mouse #3, from Day 30 to Day 40). […] The tumors have not recurred after discontinuation of treatment.

[7] = Hematocrit / hemolytic anemia after IV administration; conditions: for hematocrit after treatment (drop from 45%): 100 mg/kg IV for longer than a week; for dose at which mild hemolytic anemia can be observed: as low as
Text: Erythrocytes are sensitive to disruptions in the glycolytic cycle as glycolysis is the cell's only source of energy in the form of ATP.

[8] = Stability in cell culture media by proton-decoupled 31P NMR
Method: (§6) The stability of Pom-SF2312 in cell culture media (DMEM with 10% fetal bovine serum) was measured by proton-decoupled ^31P NMR on a Brucker 500 MHZ at the M. D. Anderson NMR core (FIG. 14).
(§7) 1.5 mM Pom-Hex and 1.5 mM Pom-SF2312 were dissolved in standard cell culture media (DMEM media containing 10% FBS with the addition of 10% D2O for locking of the NMR signal). Proton-decoupled ^31P NMR scans were taken at repeated intervals. The experiment was performed at room temperature.

[9] = tested on: ATP levels in D423 ENO1-deleted glioma cells; test: ATP content (CellTiter-Glo); format: cell-based, human; conditions: 8 hours of treatment
Method: as §1

[10] = tested on: conversion of 13C-glucose to 13C-lactate in D423 ENO1-deleted glioma cells; test: 13C-NMR tracing of uniformly labeled 13C-glucose to 13C-lactate; conditions: 48 hours, 10 mM 13C-uniformly labeled glucose
Method: Glucose labeled with heavy, non-radioactive, ^13C at carbon C-1 and ^13C at all carbon atoms were purchased from Cambridge Isotopes (CLM-420-1 and CLM-1396, respectively). Glucose free DMEM media was supplemented with 10 mM ^13C-1 or ^13C-all labeled Glucose. NMR metabolic tracing was performed by substituting conventional DMEM medium with glucose free DMEM medium, to which ^13C-1 glucose (Cambridge Isotopes) was supplemented at 10 mM. […] After 4 days, conditioned media was extracted with 80% methanol at −80° C., lyophilized and resuspended in D2O. Proton-decoupled ^13C NMR spectra were acquired using a 500 MHZ Bruker instrument in the M. D. Anderson NMR core facility.

[11] = up to 10 mM, lysates of D423 ENO1 and ENO2 expressing cells

ENO2, sequence (P09104 whole entry): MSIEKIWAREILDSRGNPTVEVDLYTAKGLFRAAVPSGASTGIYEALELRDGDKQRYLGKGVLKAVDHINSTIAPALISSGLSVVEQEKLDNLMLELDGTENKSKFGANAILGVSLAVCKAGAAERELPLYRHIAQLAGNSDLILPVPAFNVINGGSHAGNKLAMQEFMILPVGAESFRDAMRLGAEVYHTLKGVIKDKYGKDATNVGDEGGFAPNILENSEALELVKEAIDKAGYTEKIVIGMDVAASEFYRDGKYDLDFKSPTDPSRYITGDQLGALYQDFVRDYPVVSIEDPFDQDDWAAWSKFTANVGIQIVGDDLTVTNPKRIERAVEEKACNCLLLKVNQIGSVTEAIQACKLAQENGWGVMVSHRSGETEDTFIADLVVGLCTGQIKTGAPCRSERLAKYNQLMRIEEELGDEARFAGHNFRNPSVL
human ENO1, sequence (P06733 whole entry): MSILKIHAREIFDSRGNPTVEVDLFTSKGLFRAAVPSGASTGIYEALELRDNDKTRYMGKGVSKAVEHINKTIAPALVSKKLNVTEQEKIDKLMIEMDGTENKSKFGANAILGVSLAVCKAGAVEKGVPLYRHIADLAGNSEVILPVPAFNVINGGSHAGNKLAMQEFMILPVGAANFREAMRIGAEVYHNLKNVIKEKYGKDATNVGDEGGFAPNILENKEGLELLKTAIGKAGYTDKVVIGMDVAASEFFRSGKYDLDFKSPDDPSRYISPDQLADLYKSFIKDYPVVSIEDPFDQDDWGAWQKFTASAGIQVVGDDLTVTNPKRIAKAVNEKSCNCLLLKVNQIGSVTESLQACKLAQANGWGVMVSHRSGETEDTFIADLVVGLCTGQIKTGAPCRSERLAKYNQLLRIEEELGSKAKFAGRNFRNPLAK
Method for physchem: as §6, §7

SMILES: CC(C)(C)C(=O)OCOP(=O)(OCOC(=O)C(C)(C)C)C1CC(O)N(O)C1=O (stereo not shown) [Pom-SF2312, (((1,5-dihydroxy-2-oxopyrrolidin-3-yl)phosphoryl)bis(oxy))bis(methylene)bis(2,2-dimethylpropanoate)]
- pIC50 [1]: > 7.12
- maximum tolerated dose (Maximum tolerated dose): 4 MPK (mg/kg)
- half-life at 1.5 mM (physchem; cell culture media): 8 h

SMILES: C[C@@H]1O[C@@H]1P(=O)(O)O [Fosfomycin]
- enolase inhibitory activity (enolase (ENO1 and ENO2); [11]): no enolase inhibitory activity
- enolase inhibitory activity (enolase (ENO1 and ENO2); up to 10 mM, lysates of D423 ENO1 and ENO2 expressing cells, listed as fosfomycin): no inhibitory activity was observed

SMILES: O=C1C(P(=O)(O)O)CCN1O (stereo not shown) [Deoxy-SF2312]
- pIC50 (ENO2): ~5.70
- inhibition kinetics with respect to substrate 2-PGA (ENO2): clear competitive kinetics
- pIC50 (human ENO1): ~5.70

SMILES: O=CN(O)CCCP(=O)(O)O [Fosmidomycin]
- enolase inhibitory activity (enolase (ENO1 and ENO2); even concentrations of >10,000,000 nM): completely inactive
- enolase inhibitory activity (enolase (ENO1 and ENO2); [11]): no enolase inhibitory activity; also recorded: no inhibitory activity was observed

SMILES: O=C(O)P(=O)(O)O [Foscarnet]
- enolase inhibitory activity (enolase (ENO1 and ENO2); [11]): no enolase inhibitory activity
- enolase inhibitory activity (enolase (ENO1 and ENO2); up to 10 mM, lysates of D423 ENO1 and ENO2 expressing cells, listed as foscanet): no inhibitory activity was observed

SMILES: CC(C)(C)C(=O)OCOP(=O)(OCOC(=O)C(C)(C)C)C1CCCN(O)C1=O (stereo not shown) [Pom-Hex]
- pIC50 (enolase (ENO1 and ENO2); against ENO1 and ENO2, incubated prior to 5 mM 2-PG, contaminant Hex not ruled out): ~4.00
- pIC50 [1]: ~7.46
- sensitivity of ENO1 deleted D423 glioma cells ([1]; conventional growth conditions): sensitive to even low nM levels of the inhibitor
- sensitivity of normal human astrocytes (normal human astrocytes): highly resistant
- sensitivity of cell lines heterozygously deleted for ENO1 [2]: intermediate sensitivity
- toxicity to ENO1 deleted glioma cells in neurosphere conditions [3]: highly toxic
- fold more potent than Hex ([3]; FIGS. 10A & 10B, ENO1-deleted glioma cells): ≥ 200 fold
- times more toxic to VHL deleted compared to isogenic rescued controls [4]: 4-8 times
- effect on D423-MG intracranial tumor [5]: completely eradicated the tumor
- effect on Gli56 intracranial tumor growth [6]: profound tumor regression
- effect on hematocrit ([7]; doses as high as 10 mg/kg IV for up to 1 month): do not cause a statistically significant drop in hematocrit
- half-life at 1.5 mM (physchem): 36 h
- further hydrolysis to the free phosphonate (SF2312, Hex) ([8]; 72 hours of incubation): did not proceed further
- time for half of the compound to hydrolyze in media ([8]; DMEM with 10% fetal bovine serum): more than 24 hours

SMILES: O=C(CP(=O)(O)O)NO [PhAH, phosphonoacetohydroxamate]
- concentration reducing ATP levels by >40% [9]: > 100 µM
- hematocrit after treatment (drop from 45%) [7]: 29%
- dose at which mild hemolytic anemia can be observed [7]: 50 mg/kg
- concentration sufficient to decrease the ratio of 13C Lactate/13C glucose by 70% [10]: 50 µM
- pIC50 (ENO2): ~7.70
- pIC50 (human ENO1): ~7.70

SMILES: CC(C)(C)C(=O)OCOP(=O)(O)C1CC(O)N(O)C1=O (stereo not shown) [Hemi-Pom-SF2312]
- hydrolysis to SF2312 in media ([8]; within 24 hours): did not appreciably hydrolyze

SMILES: CC(=O)OC1CC(P(=O)(OCOC(=O)C(C)(C)C)OCOC(=O)C(C)(C)C)C(=O)N1OC(C)=O (stereo not shown) [Diacetyl-POM-SF2312, (((1,5-diacetoxy-2-oxopyrrolidin-3-yl)phosphoryl)bis(oxy))bis(methylene) bis(2,2-dimethylpropanoate)]
- pIC50 [1]: ~6.82

SMILES: O=C1C(P(=O)(O)O)CCCN1O (stereo not shown) [Hex]
- toxicity to ENO1 deleted glioma cells in neurosphere conditions [3]: only mildly sensitive
- hematocrit after treatment (drop from 45%) [7]: 29%
- dose at which mild hemolytic anemia can be observed [7]: 50 mg/kg
- potency against ENO2 versus ENO1 (IC50 lower / activity greater for ENO2) (ENO2; ENO2 over ENO1): approximately 6 fold
- Ki for ENO2 compared with ENO1 (ENO2; Lineweaver-Burke / Dixon plots): considerably lower Ki for ENO2 than ENO1
- inhibition kinetics with respect to substrate 2-PGA (ENO2): competitive inhibitor
